Assay results from patent publication US9132141B2 (priority 2012, dated 2015).

Test system: non-adapted human Wuhan H3N2 strain
Type: in vivo
Details: cotton rats

## CCCCCC/C=C\CCCCCCCCCC(=O)N[C@H]1[C@H](OC[C@H]2O[C@H](OP(=O)(O)O)[C@H](NC(=O)CC(=O)CCCCCCCCCCC)[C@@H](OCCCCCCCCCC)[C@@H]2O)O[C@H](COC)[C@@H](OP(=O)(O)O)[C@@H]1OCC[C@@H](CCCCCCC)OC [eritoran, α-D-Glucopyranose, 3-O-decyl-2-deoxy-6-O-[2-deoxy-3-O-[(3R)-3-methoxydecyl)-6-O-methyl-2-[[(-11Z)-1-oxo-11-octadecenyl)amino]-4-O-phosphono-β-D-glucopyranosyl]-2-[(1,3-dioxotetradecyl)amino]-1-(dihydrogen phosphate)]
  lung expression of IL-6 and IL-10: decreased lung expression of IL-6 and IL-10
